In US4206217A, “3-[4-(1,3-Diazacycloalken-2-yl)-phenyl]-1,2-benzisothiazoles, their manufacture, and drugs containing these compounds” (BASF Aktiengesellschaft, priority 1977, dated 1980):
Structures can show the parent of a compound that is named as a salt.

Experiments:
isolated auricle = assay: Stimulation time/tension relationship (isolated auricle)
Text: In test models used in respect of the antiarrhythmic effect, the following findings were obtained: Stimulation time/tension relationship (isolated auricle): […]

[1] = system: ventricular fibrillation threshold; assay: Ventricular fibrillation threshold in guinea pigs; format: in vivo, guinea pig; conditions: intravenous administration
Text: Ventricular fibrillation threshold in guinea pigs:

[2] = system: aconitine-induced arrhythmia; assay: animal or person; format: in vivo, rat (Sprague Dawley); conditions: for ED50: Rattus norvegicus, po, read-out: Antiarrhythmic effect: effective dose ED 50%; for Maximum effect: Δ% (increase in duration of aconitine infusion): effect of the maximum nontoxic dose (215 for Examples 2 and 3; 681 for procainamide); for Maximum effect: Δ% (increase in duration of aconitine infusion) / Antiarrhythmic effect: R.E. (relative effect) / Maximum effect: R.M.E. (relative maximum effectiveness) / Effect at the maximum dose, higher than that of procainamide / Antiarrhythmic activity greater than that of procainamide: rat, oral; for Antiarrhythmic effect: R.E. (relative effect) / Maximum effect: R.M.E. (relative maximum effectiveness): procainamide = 1.00; for Antiarrhythmic effect: R.E. (relative effect): effective dose; for Effect at the maximum dose, higher than that of procainamide / Antiarrhythmic activity greater than that of procainamide: versus procainamide
Experimental: The antiarrhythmic activity of the compounds was determined by orally administering these to rats (Sprague Dawley, weight: 180-240 g) 45 minutes before the start of narcosis (100 mg/kg of thiobutabarbital, administered intraperitoneally).
The arrhythmogenous substance used was aconitine, administered by intravenous infusion (at the rate of 0.005 mg/kg.minute) 60 minutes after administration of the compound of the invention.
For a quantitative evaluation of the linear relation between the logarithm of the dose (mg/kg) of the test substances and the relative increase in the duration of infusion of aconitine (Δ%), the dose which increases the duration of infusion by 50% (ED 50%) was determined.

female Swiss mice = assay: in vivo; conditions: versus procainamide
Experimental: (§1) The acute toxicity was determined on groups of 10 or 20 female Swiss mice weighing 20-26 g, using intraperitoneal administration. The LD 50 was calculated (Probit analysis) as the dose following which 50% of the animals died within 7 days.

in vivo = conditions: mouse, in vivo; for LD50 at 168 h: ip
Experimental: as §1

Compound	Stimulation time/tension relationship, effect relative to quinidine (isolated auricle)	Ventricular fibrillation threshold, effect relative to quinidine [1]	ED50 [2]	Maximum effect: Δ% (increase in duration of aconitine infusion) [2]	Antiarrhythmic effect: R.E. (relative effect) [2]	Maximum effect: R.M.E. (relative maximum effectiveness) [2]	Effect at the maximum dose, higher than that of procainamide [2]	Antiarrhythmic activity greater than that of procainamide [2]	Therapeutic range (LD 50 / ED 50%) greater than for procainamide (female Swiss mice)	selectivity ratio (in vivo)	LD50 at 168 h (in vivo)
c1ccc2c(-c3ccc(C4=NCCCN4)cc3)nsc2c1 [Example 2, 3-[4-(Tetrahydropyrimidin-2-yl)-phenyl]-1,2-benzisothiazole hydrochloride]	1.24 times the effect of quinidine	1.8 times the effect of quinidine	31.2 mg/kg	289%	5.03	2.14	114%	about 5 times	4 times	4.03	126 mg/kg
CC1CN=C(c2ccc(-c3nsc4ccccc34)cc2)N1 (stereo not drawn) [Example 3, 3-[4-(Methylimidazolin-2-yl)-phenyl]-1,2-benzisothiazole hydrochloride]	1.5 times the effect of quinidine	–	32.7 mg/kg	233%	4.80	1.73	73%	about 5 times	2.8 times	2.76	90.5 mg/kg
CCN(CC)CCNC(=O)c1ccc(N)cc1 [Procainamide, procainamide, reference compound]	–	–	157 mg/kg	135%	–	–	–	–	–	–	227 mg/kg
